Reference: the supplement of paper PMC8633005

Legend:
Assay in all cases: drug sensitivity score (DSS) (DSS (unitless, 0-50 scale)); higher = more sensitive (stronger viability inhibition); extreme values may be limits of the assay
Conditions in all cases: 72 h; culture: 2D
[1] = test system: FM-MEL-2
Method in brief: (§1)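 A 527-compound oncology library was screened in 384-well plates against melanoma cell lines and patient-derived melanoma cultures grown in 2D, the cultures at 1000–1500 cells per well. Each compound, in DMSO or water, was applied at five concentrations over a 10,000-fold range and incubated for 72 h at 37 °C before CellTiter-Glo luminescence readout of viability. A drug sensitivity score, a modified area-under-curve measure, was calculated from curves fitted in the in-house Breeze software.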

[2] = test system: WM852
Method in brief: as §1

[3] = test system: Bowes
Method in brief: as §1

[4] = test system: SK-MEL-28
Method in brief: as §1

[5] = test system: FM-MEL-6
Method in brief: as §1

[6] = test system: WM165
Method in brief: as §1

[7] = test system: SK-MEL-2
Method in brief: as §1

[8] = test system: FM-MEL-3
Method in brief: as §1

Compound | drug sensitivity score [1] | drug sensitivity score [2] | drug sensitivity score [3] | drug sensitivity score [4] | drug sensitivity score [5] | drug sensitivity score [6] | drug sensitivity score [7] | drug sensitivity score [8]
CC(C)C[C@H](NC(=O)[C@H](CCc1ccccc1)NC(=O)CN1CCOCC1)C(=O)N[C@@H](Cc1ccccc1)C(=O)N[C@@H](CC(C)C)C(=O)[C@@]1(C)CO1 [Carfilzomib] | 11 | 24.5 | 31.7 | 17 | 20.4 | 29.6 | 22.5 | 17.4
COc1cc2c(Oc3ccc4[nH]c(C)cc4c3F)ncnc2cc1OCCCN1CCCC1 [Cediranib] | 0 | 0 | 1.7 | 0 | 1.3 | 0 | 0 | 0
Cc1ccc(-c2cc(C(F)(F)F)nn2-c2ccc(S(N)(=O)=O)cc2)cc1 [Celecoxib] | 0 | 0 | 0 | 0 | 0 | 0 | 0 | 0
CCS(=O)(=O)N1CCN(c2ccc(Nc3ncc(C(N)=O)c(NC4CC4)n3)cc2)CC1 [Cerdulatinib] | 0 | 4 | 0.8 | 0 | 0.1 | 4.6 | 0 | 0
Cc1cc(Nc2ncc(Cl)c(Nc3ccccc3S(=O)(=O)C(C)C)n2)c(OC(C)C)cc1C1CCNCC1 [Ceritinib] | 4.3 | 1 | 0.3 | 1.5 | 2.6 | 4.5 | 0 | 4.3
CCN(CC)CCCC(C)Nc1ccnc2cc(Cl)ccc12 (stereo not given) [Chloroquine] | 9.4 | 8.6 | 7 | 8.3 | 9.4 | 9.7 | 7 | 7.3
CC(C)[C@H]1C(=O)N[C@@H](CCCNC(=N)N)C(=O)NCC(=O)N[C@@H](CC(=O)O)C(=O)N[C@H](Cc2ccccc2)C(=O)N1C [Cilengitide] | 0.7 | 2.5 | 0 | 2 | 1 | 0 | 0 | 0
N.N.[Cl][Pt][Cl] [Cisplatin] | 4.2 | 5.1 | 5.6 | 9.2 | 4.5 | 19.2 | 4.4 | 5.8
Nc1nc(Cl)nc2c1ncn2[C@H]1C[C@H](O)[C@@H](CO)O1 [Cladribine] | 0 | 0.1 | 1.4 | 0.8 | 4.6 | 4.3 | 0 | 2.5
Nc1nc(Cl)nc2c1ncn2[C@@H]1O[C@H](CO)[C@@H](O)[C@@H]1F [Clofarabine] | 2.4 | 8.6 | 10.9 | 10.8 | 9.6 | 16.6 | 7.6 | 11.8
CCN(CC)CCOc1ccc(C(=C(Cl)c2ccccc2)c2ccccc2)cc1 [Clomifene] | 4.1 | 5.2 | 5.8 | 6.8 | 6.3 | 6.1 | 4.2 | 5.6
COc1c(OCCCN2CCOCC2)ccc2c1N=C(NC(=O)c1cnc(N)nc1)N1CCN=C21 [Copanlisib] | 10.2 | 6.5 | 8.3 | 8.3 | 4.3 | 6.5 | 3.5 | 7.1
CC1(COc2ccc3c(c2)ncn3-c2ccc3cccc(N4CCC(N)CC4)c3n2)COC1 [Crenolanib] | 5 | 6.6 | 4.6 | 6.8 | 5.4 | 7 | 5.4 | 1.5
C[C@@H](Oc1cc(-c2cnn(C3CCNCC3)c2)cnc1N)c1c(Cl)ccc(F)c1Cl [Crizotinib] | 0 | 0 | 0 | 0 | 0 | 0 | 0 | 0
Nc1ccn([C@@H]2O[C@H](CO)[C@@H](O)[C@@H]2O)c(=O)n1 [Cytarabine] | 1.9 | 0 | 0 | 12.1 | 7.2 | 15.7 | 2.4 | 9.3
CC(C)(C)c1nc(-c2cccc(NS(=O)(=O)c3c(F)cccc3F)c2F)c(-c2ccnc(N)n2)s1 [Dabrafenib] | 1.5 | 1.1 | 1.1 | 20.5 | 0 | 18.1 | 0.9 | 2.7
COc1cc2ncnc(Nc3ccc(F)c(Cl)c3)c2cc1NC(=O)/C=C/CN1CCCCC1 [Dacomitinib] | 0.4 | 0.3 | 4.1 | 0 | 0.4 | 0 | 0 | 1
Cc1c2oc3c(C)ccc(C(=O)N[C@@H]4C(=O)N[C@H](C(C)C)C(=O)N5CCC[C@H]5C(=O)N(C)CC(=O)N(C)[C@@H](C(C)C)C(=O)O[C@@H]4C)c3nc-2c(C(=O)N[C@@H]2C(=O)N[C@H](C(C)C)C(=O)N3CCC[C@H]3C(=O)N(C)CC(=O)N(C)[C@@H](C(C)C)C(=O)O[C@@H]2C)c(N)c1=O [Dactinomycin] | 16.9 | 24.2 | 24.4 | 22.2 | 25.9 | 37.9 | 30.1 | 23.5
CO[C@@H](C(=O)N1Cc2[nH]nc(NC(=O)c3ccc(N4CCN(C)CC4)cc3)c2C1)c1ccccc1 [Danusertib] | 0 | 3.2 | 10.4 | 5.1 | 2.9 | 14.5 | 1 | 1.5
O=C(/C=C/c1cccnc1)NCCCCC1CCN(C(=O)c2ccccc2)CC1 [Daporinad] | 16.6 | 27.1 | 32.7 | 16.8 | 10.3 | 17.5 | 11.3 | 14.5
